In general, EC50 refers to the midpoint of the concentration-response curve. A higher EC50 goes with lower potency in that assay.

The source of these data is US10501453B2, “Benzothiazole or benzoxazole compounds as SUMO activators” (Icahn School of Medicine at Mount Sinai, priority 2012, dated 2019).

Each structure is given as a SMILES string.

For test [1], the system named is adult rat ventricular myocytes (ARVMs). The test is described as follows: Cell shortening/re-lengthening and calcium transient of ARVMs (IonOptix). In kind it is cell-based.
For test [2], the target named is T1, SUMO E1 enzyme (Homo sapiens, UniProt Q9UBT2).
T1 sequence (Q9UBT2 1-640): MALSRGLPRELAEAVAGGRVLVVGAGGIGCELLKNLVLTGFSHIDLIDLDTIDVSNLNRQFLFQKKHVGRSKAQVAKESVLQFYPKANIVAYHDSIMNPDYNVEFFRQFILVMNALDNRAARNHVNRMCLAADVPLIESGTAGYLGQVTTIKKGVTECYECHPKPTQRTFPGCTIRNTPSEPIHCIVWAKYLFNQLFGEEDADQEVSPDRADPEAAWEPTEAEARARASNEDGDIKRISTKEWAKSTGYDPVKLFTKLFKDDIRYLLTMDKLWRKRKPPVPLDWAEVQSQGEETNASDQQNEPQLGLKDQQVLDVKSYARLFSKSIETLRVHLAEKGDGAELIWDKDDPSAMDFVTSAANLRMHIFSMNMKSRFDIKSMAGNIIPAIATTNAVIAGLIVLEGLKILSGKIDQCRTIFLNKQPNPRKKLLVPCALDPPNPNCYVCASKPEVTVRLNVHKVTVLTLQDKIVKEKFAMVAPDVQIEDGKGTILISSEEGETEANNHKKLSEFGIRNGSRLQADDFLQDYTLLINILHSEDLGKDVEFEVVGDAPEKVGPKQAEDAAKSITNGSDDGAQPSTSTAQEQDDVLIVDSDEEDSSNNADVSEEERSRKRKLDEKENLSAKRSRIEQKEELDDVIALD
T1 sequence (Q9UBE0 1-346): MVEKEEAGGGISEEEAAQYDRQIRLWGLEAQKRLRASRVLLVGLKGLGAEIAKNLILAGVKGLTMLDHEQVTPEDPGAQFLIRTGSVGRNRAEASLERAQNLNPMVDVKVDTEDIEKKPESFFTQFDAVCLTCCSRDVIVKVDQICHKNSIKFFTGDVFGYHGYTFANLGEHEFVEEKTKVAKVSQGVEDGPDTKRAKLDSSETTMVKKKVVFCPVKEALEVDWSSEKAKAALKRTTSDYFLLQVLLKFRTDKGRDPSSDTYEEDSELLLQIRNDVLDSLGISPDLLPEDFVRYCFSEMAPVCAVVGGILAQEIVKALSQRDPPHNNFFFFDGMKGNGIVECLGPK
The test is described as follows: ATP-dependent activation of SUMO-1 (ATP hydrolysis). Type of test: biochemical.

Test [3] has as its system sham-operated animals. The test can be described thus: Hemodynamics in sham-operated mice. In kind it is in vivo, mouse. The method, then:
Hemodynamics were measured to evaluate the acute effect of Example 1 infusion on the cardiac function of the mouse model of HF. In the first set of experiments, mice were exposed to pressure overload by thoracic aortic constriction (TAC) or sham operation and received either EXAMPLE 1 or vehicle. At two months post-TAC animals developed HF. […] In addition, the positive chronotropic effect of dobutamine was no longer observed in TAC mice (FIG. 9). Following cannulation of the carotid artery and external jugular vein, infusion of EXAMPLE 1 or vehicle was performed as described in Method section. Pressure and conductance catheters were introduced in the LV through the carotid artery. Pressure and volume measurements were made simultaneously and pressure volume curves were constructed as the vehicle or EXAMPLE 1 were infused.
Hemodynamic data were obtained in 1 mg of EXAMPLE 1-treated failing hearts at 30 min and 60 min after compound treatment. […] The improvement occurred within 30 minutes after treatment and maintained for 60 minutes after treatment. […] The effects of EXAMPLE 1 on various hemodynamic parameters are shown in FIG. 9b and Table S1. dP/dt max increased with increasing concentration of EXAMPLE 1 while Tau a parameter of relaxation decreased an indication of enhanced relaxation.

Test [4] concerns the target T1, SUMO E1 enzyme. The test can be described thus: Thioester formation between SUMO-1 and SUMO E1 enzyme (gel-based assay). In kind it is biochemical.

Take `COc1ccc(-c2nnc(Nc3nc4c(OC)cccc4s3)o2)cc1` [Example 1, N-(4-methoxybenzo[d]thiazol-2-yl)-5-(4-methoxyphenyl)-1,3,4-oxadiazol-2-amine]: the “Tau value (dose response)” value came to 1.3 ± 0.0 ms in test [1] (0.1 μM) and 1300 ± 100 ms in test [1] (1 μM). Further, the “cell contractility (peak shortening), dose response” value in test [1] (concentration dependent manner, versus DMSO) was “significantly increased cell contractility”. In addition, the values for the half-maximal effective concentration (EC50) in test [2] and in test [4] were 40.5 ± 4.4 µM and 1.85 ± 0.96 µM, respectively. Further, the “hemodynamic parameters in sham-operated groups” value in test [3] is given as “No statistically significant changes”.
